Measured values reported in US10392391B2 (Vertex Pharmaceuticals Incorporated, priority 2012, dated 2019).
pKi: −log10 of the molar value.

Target: ATR kinase (full-length ATR) (Homo sapiens (Human), UniProt Q13535)
Assay: ATR inhibition assay (radioactive-phosphate incorporation)
Assay type: biochemical
Conditions: not given
Summary of the method: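 Ki(app) was fitted by non-linear regression to background-corrected initial rates. Full-length ATR (5 nM) phosphorylated 800 μM peptide using 10 μM [γ-33P]ATP at 25° C in Tris/HCl pH 7.5 buffer with MgCl2, DTT and 7% DMSO. After 10-minute compound pre-incubation and 24-hour reaction, phosphocellulose filters were scintillation counted.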

Sequence of ATR kinase (full-length ATR) (Q13535 whole entry): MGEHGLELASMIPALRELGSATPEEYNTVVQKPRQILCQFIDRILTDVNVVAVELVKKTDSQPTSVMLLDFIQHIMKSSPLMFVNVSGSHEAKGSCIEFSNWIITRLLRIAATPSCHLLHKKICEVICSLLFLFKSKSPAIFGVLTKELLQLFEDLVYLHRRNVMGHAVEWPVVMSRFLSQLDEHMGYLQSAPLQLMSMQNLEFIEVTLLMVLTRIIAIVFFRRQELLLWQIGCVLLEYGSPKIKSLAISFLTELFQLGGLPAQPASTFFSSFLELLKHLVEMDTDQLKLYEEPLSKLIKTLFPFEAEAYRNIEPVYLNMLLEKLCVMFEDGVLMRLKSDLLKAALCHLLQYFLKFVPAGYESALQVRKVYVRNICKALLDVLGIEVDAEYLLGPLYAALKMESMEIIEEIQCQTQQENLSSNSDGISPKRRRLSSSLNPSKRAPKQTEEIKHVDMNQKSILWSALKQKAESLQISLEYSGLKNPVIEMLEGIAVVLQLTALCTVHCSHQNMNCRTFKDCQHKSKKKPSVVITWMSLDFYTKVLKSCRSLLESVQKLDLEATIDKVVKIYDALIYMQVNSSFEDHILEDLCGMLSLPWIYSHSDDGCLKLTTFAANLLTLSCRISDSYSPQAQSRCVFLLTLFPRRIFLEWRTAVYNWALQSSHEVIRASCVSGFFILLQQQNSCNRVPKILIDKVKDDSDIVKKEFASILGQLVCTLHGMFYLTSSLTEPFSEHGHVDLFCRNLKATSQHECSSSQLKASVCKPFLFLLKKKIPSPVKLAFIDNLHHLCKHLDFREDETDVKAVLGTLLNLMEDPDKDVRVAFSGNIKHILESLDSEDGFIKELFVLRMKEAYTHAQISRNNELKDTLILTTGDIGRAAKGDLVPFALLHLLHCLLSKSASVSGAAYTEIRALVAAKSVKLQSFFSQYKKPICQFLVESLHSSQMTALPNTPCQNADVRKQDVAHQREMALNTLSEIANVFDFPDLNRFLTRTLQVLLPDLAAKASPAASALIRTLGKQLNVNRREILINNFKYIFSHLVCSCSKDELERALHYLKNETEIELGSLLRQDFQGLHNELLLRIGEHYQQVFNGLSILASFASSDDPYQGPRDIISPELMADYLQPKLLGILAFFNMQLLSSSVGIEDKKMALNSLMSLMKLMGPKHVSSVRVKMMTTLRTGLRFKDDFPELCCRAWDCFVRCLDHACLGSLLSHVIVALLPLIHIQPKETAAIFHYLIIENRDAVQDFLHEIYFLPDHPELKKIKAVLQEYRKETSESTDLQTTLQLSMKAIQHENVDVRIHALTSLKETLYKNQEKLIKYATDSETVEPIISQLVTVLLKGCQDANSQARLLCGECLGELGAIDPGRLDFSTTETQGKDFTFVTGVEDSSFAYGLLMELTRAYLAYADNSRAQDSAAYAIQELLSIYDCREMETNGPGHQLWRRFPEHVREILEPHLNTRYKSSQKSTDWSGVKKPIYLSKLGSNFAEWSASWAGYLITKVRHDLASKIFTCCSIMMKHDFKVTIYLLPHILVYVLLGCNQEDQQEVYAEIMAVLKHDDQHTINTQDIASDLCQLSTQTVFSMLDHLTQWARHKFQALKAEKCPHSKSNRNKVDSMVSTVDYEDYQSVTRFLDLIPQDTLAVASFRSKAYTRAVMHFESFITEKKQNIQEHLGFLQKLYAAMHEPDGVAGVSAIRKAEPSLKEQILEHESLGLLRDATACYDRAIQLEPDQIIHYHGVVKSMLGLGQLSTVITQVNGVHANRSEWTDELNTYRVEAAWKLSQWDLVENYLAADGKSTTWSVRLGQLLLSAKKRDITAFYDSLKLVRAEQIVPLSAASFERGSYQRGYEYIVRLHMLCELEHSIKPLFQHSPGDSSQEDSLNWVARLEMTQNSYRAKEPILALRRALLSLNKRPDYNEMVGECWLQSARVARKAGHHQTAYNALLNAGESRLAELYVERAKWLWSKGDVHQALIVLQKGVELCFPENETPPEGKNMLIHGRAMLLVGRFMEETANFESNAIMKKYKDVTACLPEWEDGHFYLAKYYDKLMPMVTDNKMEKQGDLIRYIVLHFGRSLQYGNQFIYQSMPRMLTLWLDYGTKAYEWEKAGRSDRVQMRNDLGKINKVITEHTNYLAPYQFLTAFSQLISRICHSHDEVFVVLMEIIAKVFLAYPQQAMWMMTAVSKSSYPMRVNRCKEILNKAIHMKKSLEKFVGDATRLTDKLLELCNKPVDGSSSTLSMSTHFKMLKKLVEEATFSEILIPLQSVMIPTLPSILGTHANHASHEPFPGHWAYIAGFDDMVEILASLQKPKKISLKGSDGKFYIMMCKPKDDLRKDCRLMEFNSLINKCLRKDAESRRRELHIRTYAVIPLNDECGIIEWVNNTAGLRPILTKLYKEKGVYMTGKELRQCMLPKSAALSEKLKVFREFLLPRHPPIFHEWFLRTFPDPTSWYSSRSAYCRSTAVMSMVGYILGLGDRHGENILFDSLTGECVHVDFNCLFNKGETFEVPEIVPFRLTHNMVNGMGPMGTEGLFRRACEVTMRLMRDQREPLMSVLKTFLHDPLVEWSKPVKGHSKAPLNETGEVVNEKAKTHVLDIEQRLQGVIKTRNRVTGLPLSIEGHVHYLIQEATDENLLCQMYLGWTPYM

pKi | SMILES
5.30 to 6.00 | Cn1ccc2cncc(NC(=O)c3c(N)nn4cc(F)cnc34)c21 [I-N-259, 2-amino-6-fluoro-N-(1-methyl-1H-pyrrolo[3,2-c]pyridin-7-yl)pyrazolo[1,5-a]pyrimidine-3-carboxamide]
5.30 to 6.00 | Nc1nn2cc(F)cnc2c1C(=O)Nc1cnccc1N1CCCCCC1 [I-N-264, 2-amino-N-(4-(azepan-1-yl)pyridin-3-yl)-6-fluoropyrazolo[1,5-a]pyrimidine-3-carboxamide]

Same assay, conditions: Ki(app), 5 nM full-length ATR, 10 μM ATP, 25° C.

pKi | SMILES
6.00 to 8.00 | Cc1nonc1N1CCN(c2ccncc2NC(=O)c2c(N)nn3cc(F)cnc23)CC1 [I-N-260, 2-amino-6-fluoro-N-(4-(4-(4-methyl-1,2,5-oxadiazol-3-yl)piperazin-1-yl)pyridin-3-yl)pyrazolo[1,5-a]pyrimidine-3-carboxamide]
6.00 to 8.00 | COC(=O)N1CCN(c2c(F)cncc2NC(=O)c2c(N)nn3cc(F)cnc23)CC1 [I-N-261, methyl-4-(3-(2-amino-6-fluoropyrazolo[1,5-a]pyrimidine-3-carboxamido)-5-fluoropyridin-4-yl)piperazine-1-carboxylate]
6.00 to 8.00 | CC(=O)N1CCCC12CCN(c1ccncc1NC(=O)c1c(N)nn3cc(F)cnc13)CC2 [I-N-262, N-(4-(1-acetyl-1,8-diazaspiro[4.5]decan-8-yl)pyridin-3-yl)-2-amino-6-fluoropyrazolo[1,5-a]pyrimidine-3-carboxamide]
6.00 to 8.00 | Cc1nncn1-c1ccncc1NC(=O)c1c(N)nn2cc(F)cnc12 [I-N-263, 2-amino-6-fluoro-N-(4-(3-methyl-4H-1,2,4-triazol-4-yl)pyridin-3-yl)pyrazolo[1,5-a]pyrimidine-3-carboxamide]
6.00 to 8.00 | Cc1nnc(C2CCN(c3ccncc3NC(=O)c3c(N)nn4cc(F)cnc34)CC2)o1 [I-N-265, 2-amino-6-fluoro-N-(4-(4-(5-methyl-1,3,4-oxadiazol-2-yl)piperidin-1-yl)pyridin-3-yl)pyrazolo[1,5-a]pyrimidine-3-carboxamide]
6.00 to 8.00 | CN(C)CC1CCN(c2ccncc2NC(=O)c2c(N)nn3cc(F)cnc23)CC1 [I-N-267, 2-amino-N-(4-(4-((dimethylamino)methyl)piperidin-1-yl)pyridin-3-yl)-6-fluoropyrazolo[1,5-a]pyrimidine-3-carboxamide]
6.00 to 8.00 | Nc1nn2cc(F)cnc2c1C(=O)Nc1cnccc1N1CCC(c2nnco2)CC1 [I-N-268, N-(4-(4-(1,3,4-oxadiazol-2-yl)piperidin-1-yl)pyridin-3-yl)-2-amino-6-fluoropyrazolo[1,5-a]pyrimidine-3-carboxamide]
6.00 to 8.00 | Cc1ncn(-c2ccncc2NC(=O)c2c(N)nn3cc(F)cnc23)c1C [I-N-269, 2-amino-N-(4-(4,5-dimethyl-1H-imidazol-1-yl)pyridin-3-yl)-6-fluoropyrazolo[1,5-a]pyrimidine-3-carboxamide]
6.00 to 8.00 | Nc1nn2cc(F)cnc2c1C(=O)Nc1cncc(F)c1N1CCCCC1 [I-N-270, 2-amino-6-fluoro-N-(5-fluoro-4-(piperidin-1-yl)pyridin-3-yl)pyrazolo[1,5-a]pyrimidine-3-carboxamide]
6.00 to 8.00 | Nc1nn2cc(F)cnc2c1C(=O)Nc1cnccc1N1CCC(S(=O)(=O)N2CCC2)CC1 [I-N-271, 2-amino-N-(4-(4-(azetidin-1-ylsulfonyl)piperidin-1-yl)pyridin-3-yl)-6-fluoropyrazolo[1,5-a]pyrimidine-3-carboxamide]
6.00 to 8.00 | CN1CCOC2(CCN(c3c(F)cncc3NC(=O)c3c(N)nn4cc(F)cnc34)CC2)C1 [I-N-272, 2-amino-6-fluoro-N-(5-fluoro-4-(4-methyl-1-oxa-4,9-diazaspiro[5.5]undecan-9-yl)pyridin-3-yl)pyrazolo[1,5-a]pyrimidine-3-carboxamide]
6.00 to 8.00 | Nc1nn2cc(F)cnc2c1C(=O)Nc1cncc(F)c1N1CCC(S(=O)(=O)N2CCN3CCC2CC3)CC1 [I-N-273, N-(4-(4-(1,4-diazabicyclo[3.2.2]nonan-4-ylsulfonyl)piperidin-1-yl)-5-fluoropyridin-3-yl)-2-amino-6-fluoropyrazolo[1,5-a]pyrimidine-3-carboxamide]
6.00 to 8.00 | Nc1nn2cc(F)cnc2c1C(=O)Nc1cncc(F)c1N1CCN(C(=O)C2CCOC2)CC1 (stereo not shown) [I-N-274, 2-amino-6-fluoro-N-(5-fluoro-4-(4-(tetrahydrofuran-3-carbonyl)piperazin-1-yl)pyridin-3-yl)pyrazolo[1,5-a]pyrimidine-3-carboxamide]
6.00 to 8.00 | Nc1nn2cc(F)cnc2c1C(=O)Nc1cncc(F)c1N1CCN(C(=O)C2CC2)CC1 [I-N-276, 2-amino-N-(4-(4-(cyclopropanecarbonyl)piperazin-1-yl)-5-fluoropyridin-3-yl)-6-fluoropyrazolo[1,5-a]pyrimidine-3-carboxamide]
6.00 to 8.00 | Nc1nn2cc(F)cnc2c1C(=O)Nc1cncc(F)c1N1CCN2C(=O)CCCC2C1 (stereo not shown) [I-N-277, 2-amino-6-fluoro-N-(5-fluoro-4-(6-oxohexahydro-1H-pyrido[1,2-a]pyrazin-2(6H)-yl)pyridin-3-yl)pyrazolo[1,5-a]pyrimidine-3-carboxamide]
6.00 to 8.00 | Nc1nn2cc(F)cnc2c1C(=O)Nc1cncc(F)c1N1CCN(C(=O)C2COC2)CC1 [I-N-278, 2-amino-6-fluoro-N-(5-fluoro-4-(4-(oxetane-3-carbonyl)piperazin-1-yl)pyridin-3-yl)pyrazolo[1,5-a]pyrimidine-3-carboxamide]
6.00 to 8.00 | Nc1nn2cc(F)cnc2c1C(=O)Nc1cncc(F)c1N1CCN2C(=O)CCC[C@H]2C1 [I-N-279, (S)-2-amino-6-fluoro-N-(5-fluoro-4-(6-oxohexahydro-1H-pyrido[1,2-a]pyrazin-2(6H)-yl)pyridin-3-yl)pyrazolo[1,5-a]pyrimidine-3-carboxamide]
6.00 to 8.00 | Nc1nn2cc(F)cnc2c1C(=O)Nc1cncc(F)c1N1CCN2C(=O)CCC[C@@H]2C1 [I-N-280, (R)-2-amino-6-fluoro-N-(5-fluoro-4-(6-oxohexahydro-1H-pyrido[1,2-a]pyrazin-2(6H)-yl)pyridin-3-yl)pyrazolo[1,5-a]pyrimidine-3-carboxamide]
6.00 to 8.00 | Nc1nn2cc(F)cnc2c1C(=O)Nc1cncc(Cl)c1N1CCCC1 [I-N-281, 2-amino-N-(5-chloro-4-(pyrrolidin-1-yl)pyridin-3-yl)-6-fluoropyrazolo[1,5-a]pyrimidine-3-carboxamide]
6.00 to 8.00 | COCC1CCN(c2ccncc2NC(=O)c2c(N)nn3cc(F)cnc23)CC1 [I-N-282, 2-amino-6-fluoro-N-(4-(4-(methoxymethyl)piperidin-1-yl)pyridin-3-yl)pyrazolo[1,5-a]pyrimidine-3-carboxamide]
6.00 to 8.00 | Cc1cncn1-c1ccncc1NC(=O)c1c(N)nn2cc(F)cnc12 [I-N-283, 2-amino-6-fluoro-N-(4-(5-methyl-1H-imidazol-1-yl)pyridin-3-yl)pyrazolo[1,5-a]pyrimidine-3-carboxamide]
6.00 to 8.00 | Nc1nn2cc(F)cnc2c1C(=O)Nc1cncc(Cl)c1N1CCC(O)C1 (stereo not shown) [I-N-284, 2-amino-N-(5-chloro-4-(3-hydroxypyrrolidin-1-yl)pyridin-3-yl)-6-fluoropyrazolo[1,5-a]pyrimidine-3-carboxamide]
6.00 to 8.00 | N#C[C@@H]1CCN(c2c(Cl)cncc2NC(=O)c2c(N)nn3cc(F)cnc23)C1 [I-N-285, (R)-2-amino-N-(5-chloro-4-(3-cyanopyrrolidin-1-yl)pyridin-3-yl)-6-fluoropyrazolo[1,5-a]pyrimidine-3-carboxamide]
